For orientation: Ki means the equilibrium dissociation constant of an inhibitor or competing ligand from its target. A high value points to lower affinity.

The structures appear in SMILES notation.

For this test, the target named is T1, Melatonin receptor type 1B (Gallus gallus, UniProt P51050).
T1 sequence (P51050 whole entry): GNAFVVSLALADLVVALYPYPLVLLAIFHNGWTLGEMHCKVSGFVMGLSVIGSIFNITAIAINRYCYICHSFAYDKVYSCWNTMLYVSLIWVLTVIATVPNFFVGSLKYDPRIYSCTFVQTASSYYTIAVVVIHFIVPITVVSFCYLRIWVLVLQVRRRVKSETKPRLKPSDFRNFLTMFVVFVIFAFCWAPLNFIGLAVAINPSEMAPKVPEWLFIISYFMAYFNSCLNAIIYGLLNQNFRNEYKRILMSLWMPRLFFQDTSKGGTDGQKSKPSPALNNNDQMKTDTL
Kind of test: Binding affinity measured against Chicken brain melatonin receptor by using 2-[125I]iodomelatonin as radioligand.
On to `COc1ccc2c(c1)C(CNC(C)=O)CCCC2` (configuration not stated), for which the inhibitory constant (Ki) is 34 nM.

The molecule `CCC(=O)NCC1CCc2ccc(OC)cc21` (single isomer, unassigned; (+)) registered an inhibitory constant (Ki) of 3 nM.

In turn, `CCC(=O)NCC1CCCc2ccc(OC)cc21` (racemic) had a Ki of 0.53 nM.

Turning to `COc1ccc2c(c1)C(CNC(C)=O)CCC2` (configuration not stated), the Ki turned out to be 4 nM.

In turn, `CCCC(=O)NCC1CCc2ccc(OC)cc21` (configuration not stated) came in with an inhibitory constant (Ki) of 7.6 nM.

Molecule `CCC(=O)NCC1Cc2ccc(OC)cc21` (configuration not stated) returned an inhibition constant Ki of 40 nM.

With `CCCC(=O)NCC1CCCc2ccc(OC)cc21` (configuration not stated), the affinity, expressed as Ki, was 0.45 nM.

With `CCCC(=O)NCC1CCCCc2ccc(OC)cc21` (configuration not stated), the Ki was found to be 1 nM.

The molecule `COc1cccc2c1CC(NC(C)=O)CC2` (configuration not stated) gave an inhibition constant (Ki) of 161 nM.

`CCC(=O)NCC1CCCc2ccc(OC)cc21` (single isomer, unassigned; (+)) registered a Ki of 0.45 nM.

The molecule `CCCC(=O)NCC1Cc2ccc(OC)cc21` (configuration not stated) registered a Ki of 49 nM.

`CCC(=O)NCC1CCCc2ccc(OC)cc21` (single isomer, unassigned; (-)) returned an inhibitory constant (Ki) above 1000 nM.

`COc1ccc2c(c1)C(CNC(C)=O)C2` (configuration not stated) came in with a Ki of 224 nM.

In turn, `COc1ccc2c(c1)C(CNC(C)=O)CC2` (configuration not stated) yielded a Ki of 77 nM.

As for `CCC(=O)NCC1CCCCc2ccc(OC)cc21` (configuration not stated), the affinity corresponds to a Ki of 29 nM.

`CCC(=O)NCC1CCc2ccc(OC)cc21` (racemic) showed an inhibition constant Ki of 16 nM.

The molecule `CCC(=O)NCC1CCc2ccc(OC)cc21` (single isomer, unassigned; (-)) gave an inhibition constant Ki of 456 nM.

The values above are taken from ChEMBL document CHEMBL1131354 (Bioorg Med Chem Lett, 1998).
